According to patent US6465176B1, “Method for identifying compounds RNA/RNA binding protein interactions” (Message Pharmaceuticals, Inc., priority 1998, dated 2002):

How the values were obtained:
[1] = test system: TNF-α production; settings: previously shown; cited from earlier work
[2] = test system: AUUUA RNA / RNA binding protein (K562 extract); test: High throughput filter binding assay, 32P-labeled AUUUA RNA with K562 protein extract (exploratory library screen)
From the text: FIG. 4 is a graph of the amount of radioactively labeled RNA retained on a filter (expressed in percent of the amount of RNA retained on a filter in a reference binding solution) following loading of various binding solutions. All of the binding solutions contained radioactively labeled AUUUA RNA either alone or including various other components. The first column represents a binding solution without RNA binding protein. The remaining columns represent binding solution containing RNA binding protein (K562 extract). Columns 3 through 8 correspond to binding solutions including the indicated test compound.
(§1) All binding reactions were performed in 96-well v-bottom plates in a final volume of 10 μl. The assays were constituted and performed as described below. Specifically, assays were performed by (1) forming a binding solution including RNA molecules, 7.5 mM BTP at pH 8.5, 10 mM KCl, 5 mM MgCl2, 0.2 mM DTT, and 10% glycerol, (2) heating the binding solution to denature the RNA molecules, (3) cooling the binding solution, (4) adding RNA binding proteins to the binding solution, (5) loading the binding solution onto a filter, and (6) detecting the amount RNA retain on the filter.
The library was initially screened at 10 μM against ^32P-labeled AUUUA RNA. Several methods of introducing the compounds into the binding reaction were tested. Initially the compounds were co-incubated with the RNA and protein, producing modest results. Next, preincubation with either the protein extract or the RNA was tried with improved results.
Seventeen compounds were chosen for further analysis at 100 nM, 1 μM and 10 μM using both AUUUA and IRE RNAs based on the results from three screening efforts (Exps. 29-31). Table 1 summarizes the results from these compounds at 10 μM. The results are also shown graphically in FIG. 4. […] Compounds D9 and H2, chosen as negative controls from the initial screening, continued to have no effect in the dose dependent screen (Exp. 33) and were identified as vehicle controls.
A 96 member random compound library was screened with the disclosed high throughput assay. The compounds were initially screened at 10 μM against ^32P-labeled AUUUA RNA. […] Seventeen compounds were chosen for further analysis at 100 nM, 1 μM and 10 μM using both AUUUA and IRE RNA molecules to determine if any selectivity of the compounds could be detected. […] Gel shifts of these compounds using AUUUA RNA confirmed the activity of the inhibitors.

[3] = test system: IRE RNA / RNA binding protein (K562 protein extract); test: High throughput filter binding assay, IRE RNA with K562 protein extract; settings: increasing concentrations: hemin 1 to 100 μM, FeCl3 and desferroxiamine 1 μM to 1 mM
From the text: FIG. 3 is a graph of the amount of radioactively labeled RNA retained on a filter (expressed in percent of the amount of RNA retained on a filter in a reference binding solution) following loading of various binding solutions. All of the binding solutions contained radioactively labeled IRE RNA either alone or including various other components. The first column represents a binding solution without RNA binding protein. The remaining columns represent binding solution containing RNA binding protein (K562 extract).
FIG. 5 is a graph of the amount of radioactively labeled RNA retained on a filter (expressed in percent of the amount of RNA retained on a filter in a reference binding solution) following loading of various binding solutions. Alternate columns correspond to binding solutions containing radioactively labeled AUUUA RNA or IRE RNA, either alone or including various other components. The first two column represents binding solutions without RNA binding protein. The remaining columns represent binding solution containing RNA binding protein (K562 extract). Columns 5 through 40 correspond to binding solutions including the indicated amount of the indicated test compound.
All binding reactions were performed in 96-well v-bottom plates in a final volume of 10 μl. The assays were constituted and performed as described below. Specifically, assays were performed by (1) forming a binding solution including RNA molecules, 7.5 mM BTP at pH 8.5, 10 mM KCl, 5 mM MgCl2, 0.2 mM DTT, and 10% glycerol, (2) heating the binding solution to denature the RNA molecules, (3) cooling the binding solution, (4) adding RNA binding proteins to the binding solution, (5) loading the binding solution onto a filter, and (6) detecting the amount RNA retain on the filter. […]
Binding assays were performed with wild-type IRE RNA and K562 protein extract in the presence of sources of iron or iron chelators to determine the ability of the filter assay to detect the modulation of binding interactions by small molecules. […] The reactions were analyzed by gel shifts to visualize the results of the filter assay. […]

[4] = test system: His RNA / RNA binding protein; test: Filter binding competition assay, His RNA; settings: increasing concentrations of unlabeled RNA
Procedure: as §1
To more fully test the filter assay, competitions were performed with U1 and His RNAs as well. U1 RNA has the sequence AAUCCAUUGCAC UCCGGAUUU (SEQ ID NO:10; M14587). His RNA has the sequence […] (SEQ ID NO:11; X57138). […] The results of the U1 and His filter assay competitions reflect the ability of the assay to detect low affinity as well as higher affinity binding interactions.
Competition studies have been performed using the filter assay in which unlabeled wild-type or mutant RNA is added to the reaction at 100 to 10,000 times the concentration of ^32P-RNA to compete for the protein binding of the radiolabeled RNA. […] In this case, the mutant RNA has a weak binding affinity for the RNA binding protein. […]

[5] = test system: U1 RNA / RNA binding protein (K562 extract); test: Filter binding competition assay, U1 RNA; settings: increasing concentrations of unlabeled RNA
From the text: FIG. 2 is a graph of the amount of radioactively labeled RNA retained on a filter (expressed in percent of the amount of RNA retained on a filter in a reference binding solution) following loading of various binding solutions. All of the binding solutions contained radioactively labeled U1 RNA either alone or including various other components. The first two columns represent binding solutions without RNA binding protein. The remaining columns represent binding solution containing RNA binding protein (K562 extract). […] In this instance, the U1 mutant interacts with less affinity than does the wild type sequence.
as §1
To more fully test the filter assay, competitions were performed with U1 and His RNAs as well. U1 RNA has the sequence AAUCCAUUGCAC UCCGGAUUU (SEQ ID NO:10; M14587). His RNA has the sequence […] […]

[6] = compound 10 μM, K562 extract, RNA & K562 = 100.00

## C/C(=N\NC(=N)N)c1cc(NC(=O)CCCCCCCCC(=O)Nc2cc(/C(C)=N/NC(=N)N)cc(/C(C)=N/NC(=N)N)c2)cc(/C(C)=N/NC(=N)N)c1 [Compound G10, CNI-1493]
[1]
  effect on TNF-α production: post-transcriptionally inhibit TNF-α production
[2]; 10 μM
  effect on counts over the 4 experiments: substantial increase in counts in 3 of the 4 experiments
[2]; compound 10 μM, K562 extract
  Avg. % (labeled RNA retained on filter, average of Experiments #29-#31 and #33): 111.00%
[2]; [6]
  Labeled RNA retained on filter, percent of RNA & K562 reference, Experiment #29: 114.53%
  Labeled RNA retained on filter, percent of RNA & K562 reference, Experiment #30: 66.94%
  Labeled RNA retained on filter, percent of RNA & K562 reference, Experiment #31: 127.28%
  Labeled RNA retained on filter, percent of RNA & K562 reference, Experiment #33: 135.24%

## CC(=O)N(O)CCCCCNC(=O)CCC(=O)N(O)CCCCCNC(=O)CCC(=O)N(O)CCCCCN [Desferroxiamine, desferroxiamine]
[3]
  modulation of IRE/protein binding by small molecules: did not change the amount IRE/protein complex formed

## [Cl][Fe]([Cl])[Cl] [FeCl3]
[3]
  modulation of IRE/protein binding by small molecules: concentration-dependent inhibition of binding

## His wild-type RNA: His RNA, sequence AAAAAGGCUCUUUUCAGAGCCACCCA (SEQ ID NO:11) (listed as RNA, chemistry not given here)
[4]
  competition by unlabeled RNA for binding of labeled His RNA (filter assay): concentration dependent inhibition of binding

## U1 wild-type RNA: U1 RNA, sequence AAUCCAUUGCAC UCCGGAUUU (SEQ ID NO:10) (AAUCCAUUGCACUCCGGAUUU; listed as RNA, chemistry not given here)
[5]
  competition by unlabeled RNA for binding of labeled U1 RNA (filter assay): concentration dependent inhibition of binding

## hemin
[3]
  modulation of IRE/protein binding by small molecules: concentration-dependent inhibition of binding
